# Data as given in patent US10835500B2, “Medicament for accelerated wound healing” (Symrise AG, priority 2014, dated 2020).
# Experiments:
# Assay type in all cases: cell-based, human
# p38 MAPK = test: Western Blot, phosphorylation of p38 MAPK in HaCaT cells; details: 500 μM
# Procedure: (§1) In the following, an investigation was to be conducted to determine whether a MAPK signalling pathway is activated by Sandalore® stimulation in skin cells, and if so, which pathway is involved. For detection, HaCaT cells were stimulated for 0-30 min with 500 μM of Sandalore®, and the proteins were then isolated and used in Western Blot assays.
# In order to reveal a possible interaction of the two MAPK signalling pathways, ERK1/2 phosphorylation in the presence of the p38 MAPK inhibitor SB203580 and p38 MAPK phosphorylation in the presence of the ERK1/2 MAPK inhibitor U0126 were investigated.
# A) Western Blot for investigating the phosphorylation of the MAP kinases in HaCaT cells stimulated for 0, 5, 15 and 30 min with Sandalore®(500 μM). […] ERK1/2: 42/44 kDa; p38: 43 kDa; JNK/SAPK: 46/54 kDA; ▪-tubulin: 52 kDa. B) Quantitative evaluation of p38 and ERK1/2 phosphorylation of HaCaT cells stimulated for 30 min with Sandalore®(500 μM) or additionally with the p38 inhibitor 5B203580 (10 μM) or ERK1/2 inhibitor U0126 (10 μM). For evaluation, the ratio of the phosphorylated (p) and unphosphorylated proteins was established and compared to that of untreated cells. Mean values including standard error. Mann-Whitney U test. *: p<0.05; ***: p<0.001. In C), the inhibitors of the respective other MAP kinase were used, and phosphorylation was compared to the cells stimulated with Sandalore® (500 μM) alone. Mean values including standard error. Mann-Whitney U test. *: p<0.05. The Western Blot analyses were carried out with three different protein isolations.
# [1] = system: cAMP content of HaCaT cells; test: cAMP assay (cAMP-Glo) in HaCaT cells
# Procedure: In order to identify the calcium channel through which calcium ions flow from the outside into the cytosol of the skin cells, the CNG channel blocker L-cis-diltiazem was used. […] An additional cAMP assay was conducted in order to verify the data of pharmacological characterization by means of the calcium imaging technique. For this purpose, HaCaT cells with various Sandalore® concentrations were stimulated, and cAMP content was determined.
# Pharmacological characterization of Sandalore®-induced signal cascade in human keratinocytes. A)-D). Shown are representative calcium imaging traces of primary keratinocytes in the presence of a blocker (blue). The horizontal bars correspond to the application times. 100 μM of ATP was used at the end of each measurement as a positive control stimulus. A) Measurement with calcium-free extracellular solution (+10 mM EGTA). B) Measurement with the adenylyl cyclase blocker SQ-22536 (100 μM). C) Use of the phospholipase-C blocker U-73122 (10 μM). 100 μM of histamine was taken as a positive control. D) Measurement with the CNG channel blocker L-cis-diltiazem (150 μM). E) Overview of pharmacological measurement of HaCaT cells and primary keratinocytes (Kera). […] Significance was determined between HaCaT cells stimulated with Sandalore® and stimulated with an equivalent volume of DMSO (0.2%). […]
# ERK1/2 MAPK = test: Western Blot, phosphorylation of ERK1/2 MAPK in HaCaT cells; details: 500 μM
# Procedure: as §1
# In order to reveal a possible interaction of the two MAPK signalling pathways, ERK1/2 phosphorylation in the presence of the p38 MAPK inhibitor SB203580 and p38 MAPK phosphorylation in the presence of the ERK1/2 MAPK inhibitor U0126 were investigated. Phosphorylation was increased for both kinases in the presence of the respective inhibitors compared to the cells stimulated with Sandalore® only. This effect was significant for p38 MAPK (FIG. 17c).
# (§2) Effect of Sandalore® stimulation on phosphorylation of MAP kinases in skin cells. A) Western Blot for investigating the phosphorylation of the MAP kinases in HaCaT cells stimulated for 0, 5, 15 and 30 min with Sandalore®(500 μM). In order to confirm uniform protein volume, ▪-tubulin was used as a control. ERK1/2: 42/44 kDa; p38: 43 kDa; JNK/SAPK: 46/54 kDA; ▪-tubulin: 52 kDa. B) Quantitative evaluation of p38 and ERK1/2 phosphorylation of HaCaT cells stimulated for 30 min with Sandalore®(500 μM) or additionally with the p38 inhibitor 5B203580 (10 μM) or ERK1/2 inhibitor U0126 (10 μM). For evaluation, the ratio of the phosphorylated (p) and unphosphorylated proteins was established and compared to that of untreated cells. Mean values including standard error. Mann-Whitney U test. *: p<0.05; ***: p<0.001. In C), the inhibitors of the respective other MAP kinase were used, and phosphorylation was compared to the cells stimulated with Sandalore® (500 μM) alone. Mean values including standard error. Mann-Whitney U test. *: p<0.05. The Western Blot analyses were carried out with three different protein isolations.
# JNK/SAPK = test: Western Blot, phosphorylation of JNK/SAPK in HaCaT cells; details: 500 μM, 0-30 min
# Procedure: as §1
# as §2, with “The Western Blot analyses were carried out with three different protein isolations.” left out
compound,measurement,setting,value
CC1=CCC(CCC(C)C(C)O)C1(C)C (stereo not shown) [Sandalore®],"phosphorylation of p38 MAPK, quantification",p38 MAPK; 30-minute stimulation,significant increase
same,phosphorylation of p38 MAPK,p38 MAPK; within 5-30 min,increased phosphorylation
same,cAMP content,[1]; 10-minute stimulation with various concentrations,dose-dependent cAMP increase
same,EC50,"[1]; 10-minute stimulation, 1 μM-10,000 μM, read-out: EC50 value of cAMP increase",197 µM
same,"phosphorylation of ERK1/2 MAPK, quantification",ERK1/2 MAPK; 30-minute stimulation,significant increase
same,phosphorylation of ERK1/2 MAPK,ERK1/2 MAPK; within 5-30 min,increased phosphorylation
same,phosphorylation of JNK/SAPK,JNK/SAPK,no phosphorylation of JNK/SAPK
